What was measured:
[1] = test system: VCaP cells; test: Cellular growth inhibition assay for VCaP cells, CellTiter-Glo; type: cell-based, human; details: 72 hours treatment, CellTiter-Glo 2.0
In short: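 GI50 values come from four-parameter curve fits of luminescence data normalized to a zero baseline. Compound, in medium with 0.5% DMSO, was added one day after plating and left for 72 h before CellTiter-Glo 2.0 addition.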

[2] = Cellular growth inhibition, T-Rex 293 SC cells with doxycycline (progesterone receptor isoform B induced), Example 45; type: cell-based; details: progesterone receptor isoform B induced with 10 ng/mL doxycycline, 72 hours, CellTiter-Glo 2.0, Table 11
[3] = test system: T-Rex 293 cell line SC cells lacking increased expression of progesterone receptor isoform B protein; test: Cellular growth inhibition, T-Rex 293 SC cells without doxycycline, Example 45; type: cell-based; details: T-Rex 293 SC cells not exposed to doxycycline, 72 hours treatment, CellTiter-Glo 2.0

Measured: GI50

Cc1sc2c(c1C)C(c1ccc(CC3CC4(CCN(c5ccc(C(=O)N[C@H]6C(C)(C)[C@H](Oc7ccc(C#N)c(Cl)c7)C6(C)C)cn5)CC4)C3)cc1)=N[C@@H](Cc1ncco1)c1nnc(C)n1-2 [Compound I-143]
< 500 nM: [1] | [2] | [3]

Cc1sc2c(c1C)C(c1ccc(N3CC(N4CCN(c5ncc(C(=O)N[C@H]6C(C)(C)[C@H](Oc7ccc(C#N)c(Cl)c7)C6(C)C)cn5)CC4)C3)cc1)=NC(Cc1ncco1)c1nnc(C)n1-2 (stereo partly drawn) [Compound I-208]
< 500 nM: [1]; Homo sapiens, VCaP, 72 h | [2] | [3]

From patent publication US20260062422A1 (Halda Therapeutics OpCo, Inc., priority 2022, published 2026)
